Where two headings read alike, the source gives them in different places.
Key:
phosphorylated MEK1 = phosphorylated MEK1 (Homo sapiens, UniProt Q02750); experiment: MEK1 binding assay (HTRF, tracer displacement); conditions: for inhibition at 2 µM: read-out: % binding (2 µM); for inhibition at 20 µM: read-out: % binding (20 µM)
Protocol: The homogeneous time resolved fluorescence (HTRF) assay was performed on a Proxiplate-384 F plus solid back plate (Perkin Elmer, Waltham, MA. USA) with 5 nM GST tagged phosphorylated MEK1 (GST-MEK1), 2 nM europium-labeled anti-GST antibody (Eu-anti-GST), 20 nM kinase tracer 236 and test compound at a variety of concentrations. In the reaction mixture, GST-MEK1 forms a complex with the Eu-anti-GST and the tracer. Excitation of europium (the donor) using a 340-nm excitation filter results in energy transfer to the fluorophore of the tracer. This energy transfer is detected by an increase in the fluorescence emission of the tracer at 665 nm and a decrease in the fluorescence emission of europium at 615 nm. The FRET ratio was calculated by dividing the emission signal at 665 nm by the emission signal at 615 nm. A competitor compound such as a MEK inhibitor replaces the tracer from the complex and decreases the FRET ratio accordingly. The plate was incubated in dark at room temperature for 30 min before measuring the fluorescent emission of each well at 665 and 615 nm using a 340-nm excitation filter, 100-µs delay time, and 200-µs integration time, on a PHERAStar plate reader (BMG Labtech, Durham, NC, USA). […] Data shown as %Inhibition normalized to AZD6244 at 100 µM.

[1] = HTRF binding to GST tagged phosphorylated MEK1, read-out: IC50

phosphorylated MEK1, sequence (Q02750 whole entry): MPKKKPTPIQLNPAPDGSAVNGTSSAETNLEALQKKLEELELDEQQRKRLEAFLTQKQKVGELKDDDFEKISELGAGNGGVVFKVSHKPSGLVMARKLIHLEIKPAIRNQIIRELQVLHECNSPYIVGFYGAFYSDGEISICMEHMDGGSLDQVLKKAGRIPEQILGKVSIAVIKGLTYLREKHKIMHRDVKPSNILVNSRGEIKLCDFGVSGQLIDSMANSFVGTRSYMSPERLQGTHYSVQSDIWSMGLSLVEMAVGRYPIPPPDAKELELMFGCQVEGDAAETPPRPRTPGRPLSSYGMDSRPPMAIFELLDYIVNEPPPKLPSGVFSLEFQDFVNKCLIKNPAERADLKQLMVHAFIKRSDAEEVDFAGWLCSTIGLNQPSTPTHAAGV

Compound | melting point | inhibition at 2 µM (phosphorylated MEK1) | inhibition at 20 µM (phosphorylated MEK1) | IC50 (phosphorylated MEK1; [1]) | binding affinity (in words) (phosphorylated MEK1) | IC50 (phosphorylated MEK1)
COc1ccc2cc(Cc3ccccc3)c(=O)oc2c1 [Compound 83, 3-Benzyl-7-methoxy-2H-chromen-2-one] | 102 to 103 °C | 23% | 2.93% |  |  | 
Cc1c(Cc2ccccc2)c(=O)oc2cc(OC(=O)c3ccccc3)c(Cl)cc12 [Compound 63, 3-Benzyl-6-chloro-4-methyl-2-oxo-2H-chromen-7-yl benzoate] | 133 to 135 °C | 33.3% | 28% |  |  | 
CCCc1c(Cc2ccc(F)cc2)c(=O)oc2cc(OC(=O)c3ccccc3)ccc12 [Compound 68, 3-(4-Fluorobenzyl)-2-oxo-4-propyl-2H-chromen-7-yl benzoate] | 95 to 96 °C | 26.1% | 45.6% |  |  | 
CCCc1c(Cc2ccc(F)cc2)c(=O)oc2cc(OC(=O)C(C)(C)C)ccc12 [Compound 61, 3-(4-Fluorobenzyl)-2-oxo-4-propyl-2H-chromen-7-yl pivalate] | 138 to 140 °C | 31.6% | 40.9% |  |  | 
CCC(=O)Oc1cc2oc(=O)c(Cc3ccccc3)c(C)c2cc1Cl [Compound 34, 3-Benzyl-6-chloro-4-methyl-2-oxo-2H-chromen-7-yl propionate] | 124 to 126 °C | 70% | 72.4% | 0.326 µM |  | 
Cc1c(Cc2ccccc2)c(=O)oc2cc(OC(=O)C(C)(C)C)c(Cl)cc12 [Compound 56, 3-Benzyl-6-chloro-4-methyl-2-oxo-2H-chromen-7-yl pivalate] | 113 °C | 16.6% | 34.1% |  |  | 
COc1ccc2cc(C(=O)c3ccccc3)c(=O)oc2c1 [Compound 86, 3-benzoyl-7-methoxycoumarin] | 149 to 150 °C | 7.96% | -8.83% |  |  | 
CCCc1c(Cc2ccc(F)cc2)c(=O)oc2cc(O)ccc12 [Compound 4h, 3-(4-Fluorobenzyl)-7-hydroxy-4-propyl-2H-chromen-2-one] | 130 to 131 °C | 20.9% | 20.4% |  |  | 
Cc1ccc(S(=O)(=O)Oc2ccc3c(C)c(Cc4ccc(F)cc4)c(=O)oc3c2)cc1 [Compound 81, 3-(4-Fluorobenzyl)-4-methyl-2-oxo-2H-chromen-7-yl 4-methylbenzenesulfonate] | 95 to 96 °C | 8.05% | 9.55% |  |  | 
CCCc1c(Cc2ccccc2)c(=O)oc2cc(OC(=O)C(C)(C)C)ccc12 [Compound 58, 3-Benzyl-2-oxo-4-propyl-2H-chromen-7-yl pivalate] | 138 to 139 °C | 43.2% | 19.1% |  |  | 
CCc1c(Cc2ccc(F)cc2)c(=O)oc2cc(OC(=O)C(C)(C)C)ccc12 [Compound 59, 4-Ethyl-3-(4-fluorobenzyl)-2-oxo-2H-chromen-7-yl pivalate] | 103 to 104 °C | 45.9% | 23.4% |  | inactive | 
O=c1cc(CCl)c2ccc(O)cc2o1 [Compound 4i, 4-(Chloromethyl)-7-hydroxy-2H-chromen-2-one] | 166 to 167 °C | 33.3% | 22.4% |  |  | 
CCCCC(=O)Oc1ccc2c(CCC)c(Cc3ccccc3)c(=O)oc2c1 [Compound 51, 3-Benzyl-2-oxo-4-propyl-2H-chromen-7-yl pentanoate] | 78 to 79 °C | 29.5% | 42.5% |  |  | 
Cc1c(Cc2ccc(F)cc2)c(=O)oc2cc(OC(=O)c3ccccc3)ccc12 [Compound 66, 3-(4-Fluorobenzyl)-4-methyl-2-oxo-2H-chromen-7-yl benzoate] | 151 to 153 °C | 25.8% | 31% |  |  | 
CCCCC(=O)Oc1ccc2c(C)c(Cc3ccccc3)c(=O)oc2c1 [Compound 48, 3-Benzyl-4-methyl-2-oxo-2H-chromen-7-yl pentanoate] | 110 to 111 °C | 18.8% | 21.2% |  |  | 
Cc1ccc(S(=O)(=O)Oc2ccc3c(C)c(Cc4ccccc4)c(=O)oc3c2)cc1 [Compound 76, 3-Benzyl-4-methyl-2-oxo-2H-chromen-7-yl 4-methylbenzenesulfonate] | 138 to 139 °C | 2.87% | -2.36% |  |  | 
CCCc1c(Cc2ccccc2)c(=O)oc2cc(OC(C)=O)ccc12 [Compound 30, 3-Benzyl-2-oxo-4-propyl-2H-chromen-7-yl acetate] | 139 to 140 °C | 15.5% | 25.6% |  |  | 

Compound | melting point | inhibition at 2 µM (phosphorylated MEK1) | inhibition at 20 µM (phosphorylated MEK1) | IC50 (phosphorylated MEK1; [1]) | binding affinity (in words) (phosphorylated MEK1) | IC50 (phosphorylated MEK1)
Cc1c(Cc2ccccc2)c(=O)oc2cc(OC(=O)c3ccccc3)ccc12 [Compound 62, 3-Benzyl-4-methyl-2-oxo-2H-chromen-7-yl benzoate] | 149 to 150 °C | 4.07% | 31.1% |  |  | 
CCCC(=O)Oc1ccc2c(CCC)c(Cc3ccccc3)c(=O)oc2c1 [Compound 44, 3-Benzyl-2-oxo-4-propyl-2H-chromen-7-yl butyrate] | 105 to 106 °C | 14% | 38.9% |  |  | 
CCc1c(Cc2ccccc2)c(=O)oc2cc(OC(=O)N(C)C)ccc12 [Compound 15, 3-Benzyl-4-ethyl-2-oxo-2H-chromen-7-yl dimethylcarbamate] | 85 to 86 °C | 85% | 92.8% |  |  | 0.163 µM
CC(=O)Oc1cc2oc(=O)c(Cc3ccccc3)c(C)c2cc1Cl [Compound 27, 3-Benzyl-6-chloro-4-methyl-2-oxo-2H-chromen-7-yl acetate] | 190 °C | 30.6% | 30.8% |  |  | 
CCCc1c(Cc2ccccc2)c(=O)oc2cc(O)ccc12 [Compound 4e, 3-Benzyl-7-hydroxy-4-propyl-2H-chromen-2-one] | 139 to 140 °C | 29.1% | 7.06% |  |  | 
CCc1c(Cc2ccccc2)c(=O)oc2cc(OC(=O)c3ccccc3)ccc12 [Compound 64, 3-Benzyl-4-ethyl-2-oxo-2H-chromen-7-yl benzoate] | 138 °C | 10.1% | 21.5% |  |  | 
Cc1c(Cc2ccccc2)c(=O)oc2cc(OC(=O)C(C)(C)C)ccc12 [Compound 55, 3-Benzyl-4-methyl-2-oxo-2H-chromen-7-yl pivalate] | 157 to 158 °C | 14.6% | 14.8% |  |  | 
CCCc1c(Cc2ccccc2)c(=O)oc2cc(OC(=O)c3ccccc3)ccc12 [Compound 65, 3-Benzyl-2-oxo-4-propyl-2H-chromen-7-yl benzoate] | 120 °C | 32.6% | 37.1% |  |  | 
CCc1c(Cc2ccc(F)cc2)c(=O)oc2cc(OC(=O)N(CC)CC)ccc12 [Compound 25, 4-Ethyl-3-(4-fluorobenzyl)-2-oxo-2H-chromen-7-yl diethylcarbamate] | 74 to 75 °C | 25.9% | 59.2% |  | active | 
CCCC(=O)Oc1cc2oc(=O)c(Cc3ccccc3)c(C)c2cc1Cl [Compound 41, 3-Benzyl-6-chloro-4-methyl-2-oxo-2H-chromen-7-yl butyrate] | 107 to 108 °C | 21% | 25.8% |  |  | 
CCc1c(Cc2ccc(F)cc2)c(=O)oc2cc(OC(C)=O)ccc12 [Compound 32, 4-Ethyl-3-(4-fluorobenzyl)-2-oxo-2H-chromen-7-yl acetate] | 122 to 123 °C | 94.6% | 101% | 0.0912 µM | active | 
CCCc1c(Cc2ccccc2)c(=O)oc2cc(OC(=O)N(CC)CC)ccc12 [Compound 23, 3-Benzyl-2-oxo-4-propyl-2H-chromen-7-yl diethylcarbamate] | 112 to 113 °C | 43.1% | 46.1% |  |  | 
CCc1c(Cc2ccccc2)c(=O)oc2cc(OC(=O)N(CC)CC)ccc12 [Compound 22, 3-Benzyl-4-ethyl-2-oxo-2H-chromen-7-yl diethylcarbamate] | 64 to 65 °C | 6.63% | 48.1% |  |  | 
CCCC(=O)Oc1ccc2c(CCC)c(Cc3ccc(F)cc3)c(=O)oc2c1 [Compound 47, 3-(4-Fluorobenzyl)-2-oxo-4-propyl-2H-chromen-7-yl butyrate] | 88 to 90 °C | 57% | 70.3% | 0.944 µM |  | 
O=c1cc(CO)c2ccc(O)cc2o1 [Compound 4j, 7-Hydroxy-4-(hydroxymethyl)-2H-chromen-2-one] | 148 to 149 °C | 36.3% | 33.6% |  |  | 
Cc1c(Cc2ccc(F)cc2)c(=O)oc2cc(OC(=O)C(C)(C)C)ccc12 [Compound 60, 3-(4-Fluorobenzyl)-4-methyl-2-oxo-2H-chromen-7-yl pivalate] | 136 to 138 °C | 23.7% | 20.3% |  |  | 
